Assay results as given in US7531530B2, “Therapeutic compounds” (Cancer Research Technology Limited, priority 2003, dated 2009).

Key:
PARP (tumour PARP) = PARP (tumour PARP) (Homo sapiens, UniProt P09874); experiment: PARP activity in SW620 tumour homogenates of formula I-phosphate treated mice (10H antibody); format: in vivo
PARP (pbl parp) = target: T1, PARP (pbl parp) (Mus musculus, UniProt P11103); experiment: PARP activity in peripheral blood lymphocytes of formula I-phosphate treated mice (10H antibody); format: in vivo
T1 construct: from tissue; host or cells: peripheral blood lymphocytes of treated mice
T1 sequence (P11103 whole entry): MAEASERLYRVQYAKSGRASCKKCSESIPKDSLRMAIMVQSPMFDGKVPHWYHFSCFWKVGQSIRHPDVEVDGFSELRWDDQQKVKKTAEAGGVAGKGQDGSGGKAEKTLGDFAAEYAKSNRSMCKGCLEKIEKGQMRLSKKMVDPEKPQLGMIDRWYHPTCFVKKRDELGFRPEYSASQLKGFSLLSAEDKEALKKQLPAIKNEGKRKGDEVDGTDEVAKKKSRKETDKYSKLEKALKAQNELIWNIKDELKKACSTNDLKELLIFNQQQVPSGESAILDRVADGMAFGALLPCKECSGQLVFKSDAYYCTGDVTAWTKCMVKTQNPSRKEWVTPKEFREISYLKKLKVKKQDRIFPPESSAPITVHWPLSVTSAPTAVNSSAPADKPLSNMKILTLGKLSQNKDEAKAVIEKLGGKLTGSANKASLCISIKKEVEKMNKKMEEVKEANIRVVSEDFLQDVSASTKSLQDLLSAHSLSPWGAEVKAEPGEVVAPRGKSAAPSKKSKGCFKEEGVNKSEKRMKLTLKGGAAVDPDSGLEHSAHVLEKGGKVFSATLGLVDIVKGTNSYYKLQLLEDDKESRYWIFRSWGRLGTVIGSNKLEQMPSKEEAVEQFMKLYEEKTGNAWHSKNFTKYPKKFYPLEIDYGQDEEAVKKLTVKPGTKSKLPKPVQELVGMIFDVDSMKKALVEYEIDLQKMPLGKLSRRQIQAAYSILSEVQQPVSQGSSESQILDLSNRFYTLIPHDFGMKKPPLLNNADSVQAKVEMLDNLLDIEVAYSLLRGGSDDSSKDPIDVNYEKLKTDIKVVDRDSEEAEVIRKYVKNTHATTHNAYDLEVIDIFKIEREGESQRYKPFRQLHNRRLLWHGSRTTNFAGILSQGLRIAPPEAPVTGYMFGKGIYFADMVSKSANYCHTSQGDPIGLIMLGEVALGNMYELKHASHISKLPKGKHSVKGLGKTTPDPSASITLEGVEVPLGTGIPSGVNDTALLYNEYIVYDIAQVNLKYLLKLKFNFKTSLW

[1] = Plasma and tumour pharmacokinetics in mice bearing SW620 xenografts; format: in vivo
Solubility = format: physicochemical; conditions: phosphate salt versus parent compound
PARP (tumour PARP act) = target: T2, PARP (tumour PARP act) (Homo sapiens, UniProt P09874); experiment: PARP activity in SW620 tumour homogenates of formula III-treated mice ([32P] NAD+ incorporation); format: in vivo; conditions: formula III 10 mg/kg intraperitoneal; SW620 xenografts
T2 construct: from tissue; host or cells: SW620 xenograft tumour homogenates from treated mice
T2 sequence (P09874 whole entry): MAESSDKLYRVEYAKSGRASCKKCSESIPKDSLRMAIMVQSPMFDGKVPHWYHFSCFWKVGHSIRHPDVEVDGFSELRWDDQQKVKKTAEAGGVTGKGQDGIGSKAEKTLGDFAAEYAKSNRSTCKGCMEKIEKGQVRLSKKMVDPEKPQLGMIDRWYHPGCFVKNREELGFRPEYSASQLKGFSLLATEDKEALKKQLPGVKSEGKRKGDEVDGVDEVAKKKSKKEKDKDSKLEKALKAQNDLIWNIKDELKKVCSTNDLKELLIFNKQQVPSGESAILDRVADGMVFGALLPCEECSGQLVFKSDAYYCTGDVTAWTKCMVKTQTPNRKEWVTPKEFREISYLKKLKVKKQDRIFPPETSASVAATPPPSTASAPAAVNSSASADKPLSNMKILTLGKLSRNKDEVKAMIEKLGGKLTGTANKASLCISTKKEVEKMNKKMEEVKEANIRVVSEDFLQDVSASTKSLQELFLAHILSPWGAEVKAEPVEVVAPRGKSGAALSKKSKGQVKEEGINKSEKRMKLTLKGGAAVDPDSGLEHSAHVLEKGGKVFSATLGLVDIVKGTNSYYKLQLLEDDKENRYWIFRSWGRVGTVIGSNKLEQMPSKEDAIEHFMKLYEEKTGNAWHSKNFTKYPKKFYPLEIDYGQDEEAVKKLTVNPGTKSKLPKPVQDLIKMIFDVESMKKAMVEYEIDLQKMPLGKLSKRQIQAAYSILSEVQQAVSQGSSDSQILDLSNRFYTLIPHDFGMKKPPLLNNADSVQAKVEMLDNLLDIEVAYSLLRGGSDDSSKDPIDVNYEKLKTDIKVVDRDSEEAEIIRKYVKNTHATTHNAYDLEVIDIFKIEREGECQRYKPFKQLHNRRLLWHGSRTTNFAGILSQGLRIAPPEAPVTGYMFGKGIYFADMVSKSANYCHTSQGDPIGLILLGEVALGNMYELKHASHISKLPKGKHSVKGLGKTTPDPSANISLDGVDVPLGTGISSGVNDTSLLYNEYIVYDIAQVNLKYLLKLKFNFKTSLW
Protocol: (§1) Exponentially growing cells were exposed to 1% DMSO in culture medium (control) or a compound of formula I or III in 1% DMSO at the concentrations indicated in FIG. 4 to cells permeabilised with digitonin, or intact cells for 20 minutes prior to washing and digitonin-permeabilization. PARP activity was measured by incorporation of a [32P] labelled NAD+ substrate into TCA precipitateble polymers after stimulation by the addition of a blunt-ended oligonucleotide and compared with non-oligonucleotide-stimulated cells. PARP activity in tumour homogenates (1 in 40 in isotonic buffer) from formula III-treated mice was measured in the same way. PARP activity in pbls and tumour homogenates from formula I-phosphate treated mice was measured by immunological detection of polymer using the 10H antibody. Briefly, tumour homogenates diluted to up to 1:1000 in isotonic buffer were incubated with 350 μM NAD for 6 min and blotted onto nitrocellulose membrane. The poly(ADP-ribose) (PAR) polymer formation was quantified by chemiluminescence detection using a Fuji LAS3000 UV Illuminator by reference to serial dilutions of a PAR standard, following incubation with 10H antibody to PAR and a secondary anti-mouse antibody.

PARP [2] = target: T3, PARP (Mus musculus, UniProt P11103); experiment: Cellular PARP activity assay, permeabilised L1210 cells; format: cell-based; conditions: L1210 cells permeabilised with digitonin prior to adding the inhibitor
T3 construct: endogenous in cells; host or cells: L1210 cells
T3 sequence (P11103 whole entry): as the sequence (P11103 whole entry) above
Protocol: as §1

SW620 xenografts = experiment: Tumour growth in mice bearing SW620 xenografts; format: in vivo; conditions: formula III 15 mg/kg daily×5 in conjunction with temozolomide
Description: FIG. 8 is a graph showing the tumour growth (median relative tumour volume) in mice bearing SW620 xenografts following treatment with formula III in combination with temozolomide (TMZ) and with TMZ alone;
FIG. 9 is a graph showing the tumour growth (median relative tumour volume) of mice bearing SW620 xenografts following treatment with formula I-phosphate in combination with temozolomide (TMZ) and with formula I-phosphate and TMZ alone;
However, shortly after this time the tumour size begins to increase.

PARP [3] = target: T3, PARP; experiment: Cellular PARP activity assay, intact L1210 cells; format: cell-based; conditions: intact L1210 cells exposed for 20 minutes prior to permeabilisation
Protocol: as §1

[4] = formula I-phosphate 1 mg/kg, compared with 10 mg/kg
[5] = formula I-phosphate 10 mg/kg intraperitoneal, 24 hr after administration
[6] = formula I-phosphate 10 mg/kg intraperitoneal, thirty minutes after administration
[7] = formula III 10 mg/kg intraperitoneal

Chain of PARP (tumour PARP) (P09874 whole entry): as the sequence (P09874 whole entry) above

| effect on PARP activity in tumour (PARP (tumour PARP); [4]) | PARP activity in tumour (PARP (tumour PARP); formula I-phosphate 10 mg/kg intraperitoneal, up to 24 hr, SW620 xenografts) [% control] | effect on PARP activity in pbls (PARP (pbl parp); [4]) | PARP activity in pbls (PARP (pbl parp); formula I-phosphate 10 mg/kg intraperitoneal, up to 24 hr) [% control] | plasma concentration of formula I [1, 4] | tumour concentration of formula I [1, 4] | plasma concentration of parent compound (formula I) [1, 5] | tumour concentration of parent compound (formula I) [1, 5] | plasma concentration of parent compound (formula I) [1, 6] | tumour concentration of parent compound (formula I) [1, 6] | solubility relative to formula I (Solubility) | PARP activity in the tumour (PARP (tumour PARP act)) | PARP inhibitory activity, formula I compared with formula III (PARP [2]) | distribution to the tumour [1, 7] | retention in tumour versus plasma with time [1, 7] | PARP inhibitory activity, formula I compared with formula III (PARP [3]) | SMILES | decrease of concentration with time, plasma versus tumour ([1]; formula I-phosphate 10 mg/kg intraperitoneal) | tumour outcome at autopsy at the end of the experiment (SW620 xenografts) |
| --- | --- | --- | --- | --- | --- | --- | --- | --- | --- | --- | --- | --- | --- | --- | --- | --- | --- | --- |
| less pronounced effect | < 50 | less pronounced effect | < 50 | lower levels | lower levels | none could be detected | significant levels were detectable | high levels | high levels | increases the solubility |  |  |  |  |  | CNCc1ccc(-c2[nH]c3cc(F)cc4c3c2CCNC4=O)cc1.O=P(O)(O)O [formula I-phosphate] | more rapidly in the plasma than in the tumour |  |
|  |  |  |  |  |  |  |  |  |  |  | inhibits PARP activity | no difference | distributes well to the tumour | preferentially retained with time |  | CN(C)Cc1ccc(-c2nc3cccc4c3n2CCNC4=O)cc1 [formula III] |  | complete tumour regression |
|  |  |  |  |  |  |  |  |  |  |  |  | no difference |  |  | more potent | CNCc1ccc(-c2[nH]c3cc(F)cc4c3c2CCNC4=O)cc1 [formula I] |  |  |
